Measurements: patent US8921382B2, “Thiazolo[5,4-d] pyrimidines and their use as agrochemicals” (Dow AgroSciences, LLC., priority 2010, dated 2014)

Assays:
Assay type in all cases: in vivo
Pyricularia oryzae = assay: whole plant or invertebrate; details: foliar, read-out: Activity against Fungal Diseases PYRIOR (percent disease control)
Septoria tritici = assay: Septoria Blotch of Wheat foliar spray test, inoculated one day after treatment; details: Zymoseptoria tritici, wheat plants, read-out: Activity against Fungal Diseases SEPTTR (percent disease control); for pest or weed control at 200 ppm: applied to foliage at 200 ppm; for pest or weed control at 25 ppm: Tested at 25 ppm
Method: (§1) Fungicide activity data are the level (in percent) at which the given disease was controlled when the given compound was applied to the foliage of the plants at 200 ppm. In a few cases (noted in the table) the compound was applied to the plants at 25 ppm or 3 ppm. The plants were inoculated with the fungus one day after treatment. ***=80-100% control; **=50-79% control; *=0-49% control. […] The activity of the compounds as effective fungicides was determined by applying the compounds to plants and observing control of fungal disease. […] All plants were inoculated with spores of the fungus the day after treatment, then incubated in an environment conducive to disease development. Disease severity was evaluated 4 to 25 days (d) later, depending on the speed of disease development. The following experiments were performed in the laboratory to determine the fungicidal efficacy of the compounds of the invention. […] Each pot contained 3-10 seedlings. These plants were sprayed until wet with the formulated test compound. On the following day, the leaves were inoculated with an aqueous spore suspension of Septoria tritici and the plants were kept in high humidity (one day in a dark dew chamber followed by two days in a lighted dew chamber) to permit spores to germinate and infect the leaf. The plants were then transferred to a greenhouse until disease developed on untreated control plants. […] The effectiveness of the test compounds at controlling disease when sprayed on leaves was determined by assessing the severity of disease on treated plants, then converting the severity to percent control based on the level of disease on untreated, inoculated plants.

[1] = system: Puccinia recondita tritici; assay: Leaf Rust of Wheat foliar spray test, inoculated one day after treatment; details: applied to foliage at 200 ppm, wheat plants, read-out: Activity against Fungal Diseases PUCCRT (percent disease control)
Method: as §1, with “3-8” for “3-10”, “compounds.” for “compound.”, “Puccinia recondita” for “Septoria”, “overnight” for “(one day in a dark dew chamber followed by two days in a lighted dew chamber)”

[2] = system: Pseudoperonospora cubensis; assay: Cucumber Downy Mildew foliar spray test, inoculated one day after treatment; details: applied to foliage at 200 ppm, cucumber plants, read-out: Activity against Fungal Diseases PSPECU (percent disease control)
Method: Fungicide activity data are the level (in percent) at which the given disease was controlled when the given compound was applied to the foliage of the plants at 200 ppm. In a few cases (noted in the table) the compound was applied to the plants at 25 ppm or 3 ppm. The plants were inoculated with the fungus one day after treatment. ***=80-100% control; **=50-79% control; *=0-49% control. […] The activity of the compounds as effective fungicides was determined by applying the compounds to plants and observing control of fungal disease. […] All plants were inoculated with spores of the fungus the day after treatment, then incubated in an environment conducive to disease development. Disease severity was evaluated 4 to 25 days (d) later, depending on the speed of disease development. The following experiments were performed in the laboratory to determine the fungicidal efficacy of the compounds of the invention. Cucumber Downy Mildew (causal agent Pseudoperonospora cubensis; Bayer code […]): Cucumber plants (variety 'Bush Champion' or 'Bush Pickle Hybrid') were grown from seed in a soil-less peat-based potting mixture (Metromix) until the first true leaf was 20-80% expanded. Each pot contained 1 seedling. These plants were sprayed until wet with the formulated test compound. On the following day, the leaves were inoculated with an aqueous suspension of downy mildew sporangia and the plants were kept in high humidity for one day to permit sporangia to germinate and infect the leaf. The plants were then incubated in a growth chamber until disease developed on untreated control plants. […] The effectiveness of the test compounds at controlling disease when sprayed on leaves was determined by assessing the severity of disease on treated plants, then converting the severity to percent control based on the level of disease on untreated, inoculated plants.

Row | SMILES | pest or weed control at 200 ppm (Pyricularia oryzae) | pest or weed control at 200 ppm (Septoria tritici) | pest or weed control at 200 ppm [1] | pest or weed control at 200 ppm [2] | pest or weed control at 25 ppm (Septoria tritici)
1 | FC(F)(F)c1ccnc(Oc2ccc(CCNc3ncnc4scnc34)cc2)c1 [Compound 7, thiazolo[5,4-d]pyrimidin-7-yl-{2-[4-(4-trifluoromethylpyridin-2-yloxy)-phenyl]-ethyl}-amine] | 80 to 100% | 80 to 100% | 80 to 100% | 80 to 100% | 
2 | FC(F)(F)c1cccnc1Oc1ccc(CCNc2ncnc3scnc23)cc1 [Compound 8, thiazolo[5,4-d]pyrimidin-7-yl-{2-[4-(3-trifluoromethylpyridin-2-yloxy)-phenyl]-ethyl}-amine] | 80 to 100% | 80 to 100% | 80 to 100% | 80 to 100% | 
3 | Cc1cc(Oc2cc(C(F)(F)F)ccn2)ccc1OCCNc1ncnc2scnc12 [Compound 9, {2-[2-methyl-4-(4-trifluoromethylpyridin-2-yloxy)-phenoxy]-ethyl}-thiazolo[5,4-d]pyrimidin-7-ylamine] | 80 to 100% | 80 to 100% | 80 to 100% | 80 to 100% | 
4 | Cc1cc(Oc2cc(C(F)(F)F)ccn2)c(C)cc1CCNc1ncnc2scnc12 [Compound 13, {2-[2,5-dimethyl-4-(4-trifluoromethylpyridin-2-yloxy)-phenyl]-ethyl}-thiazolo[5,4-d]pyrimidin-7-ylamine] | 80 to 100% | 80 to 100% | 80 to 100% | 80 to 100% | 
5 | COC(=O)c1cnc(Oc2ccc(CCNc3ncnc4scnc34)cc2)cc1C(F)(F)F [Compound 16, 6-{4-[2-(thiazolo[5,4-d]pyrimidin-7-ylamino)-ethyl]-phenoxy}-4-trifluoromethyl-nicotinic acid methyl ester] | 50 to 79% | 50 to 79% | 80 to 100% | 80 to 100% | 
6 | CC(Cc1ccc(Oc2cc(C(F)(F)F)ccn2)cc1)Nc1ncnc2scnc12 (centres unmarked) [Compound 18, {1-methyl-2-[4-(4-trifluoromethylpyridin-2-yloxy)-phenyl]-ethyl}-thiazolo[5,4-d]pyrimidin-7-ylamine] | 80 to 100% | 80 to 100% | 80 to 100% | 80 to 100% | 
7 | Cc1cc(CCNc2ncnc3scnc23)ccc1Oc1cc(C(F)(F)F)ccn1 [Compound 23, {2-[3-methyl-4-(4-trifluoromethylpyridin-2-yloxy)-phenyl]-ethyl}-thiazolo[5,4-d]pyrimidin-7-ylamine] | 80 to 100% | 80 to 100% | 80 to 100% | 80 to 100% | 
8 | Cc1cc(CCNc2ncnc3scnc23)ccc1Oc1ncccc1C(F)(F)F [Compound 24, {2-[3-methyl-4-(3-trifluoromethylpyridin-2-yloxy)-phenyl]-ethyl}-thiazolo[5,4-d]pyrimidin-7-ylamine] | 50 to 79% | 80 to 100% | 80 to 100% | 80 to 100% | 
9 | COC(=O)c1cnc(Oc2ccc(CCNc3ncnc4scnc34)cc2Br)cc1C(F)(F)F [Compound 27, 6-{2-bromo-4-[2-(thiazolo[5,4-d]pyrimidin-7-ylamino)-ethyl]-phenoxy}-4-trifluoromethyl-nicotinic acid methyl ester] | 80 to 100% | 50 to 79% | 80 to 100% | 80 to 100% | 
10 | COc1cc(CCNc2ncnc3scnc23)ccc1Oc1ccc(C(F)(F)F)cc1F [Compound 30, {2-[4-(2-fluoro-4-trifluoromethylphenoxy)-3-methoxyphenyl]-ethyl}-thiazolo[5,4-d]pyrimidin-7-ylamine] | 80 to 100% |  | 80 to 100% | 80 to 100% | 80 to 100%
11 | COc1cc(CCNc2ncnc3scnc23)ccc1Oc1ccncc1C(F)(F)F [Compound 31, {2-[3-methoxy-4-(3-trifluoromethylpyridin-4-yloxy)-phenyl]-ethyl}-thiazolo[5,4-d]pyrimidin-7-ylamine] | 80 to 100% |  | 80 to 100% | 50 to 79% | 80 to 100%
12 | COc1cc(CCNc2ncnc3scnc23)ccc1Oc1c(F)cnc(C(F)(F)F)c1F [Compound 32, {2-[4-(3,5-difluoro-2-trifluoromethylpyridin-4-yloxy)-3-methoxyphenyl]-ethyl}-thiazolo[5,4-d]pyrimidin-7-ylamine] | 80 to 100% |  | 80 to 100% | 80 to 100% | 80 to 100%
13 | Fc1cnc(C(F)(F)F)c(F)c1Oc1ccc(CCNc2ncnc3scnc23)cc1 [Compound 33, {2-[4-(3,5-difluoro-2-trifluoromethylpyridin-4-yloxy)-phenyl]-ethyl}-thiazolo[5,4-d]pyrimidin-7-ylamine] | 80 to 100% | 80 to 100% | 80 to 100% | 80 to 100% | 
14 | CC(Nc1ncnc2scnc12)c1ccc(Oc2cc(C(F)(F)F)ccn2)cc1 (centres unmarked) [Compound 35, thiazolo[5,4-d]pyrimidin-7-yl-{1-[4-(4-trifluoromethylpyridin-2-yloxy)-phenyl]-ethyl}-amine] | 80 to 100% | 80 to 100% | 80 to 100% | 80 to 100% | 
15 | Fc1cnc(Oc2ccc(CCNc3ncnc4scnc34)cc2)c(F)c1C(F)(F)F [Compound 36, {2-[4-(3,5-difluoro-4-trifluoromethylpyridin-2-yloxy)-phenyl]-ethyl}-thiazolo[5,4-d]pyrimidin-7-ylamine] | 80 to 100% | 80 to 100% | 80 to 100% | 80 to 100% | 
16 | FC(F)(F)c1cc(Oc2ccc(CCNc3ncnc4scnc34)cc2)ccn1 [Compound 40, thiazolo[5,4-d]pyrimidin-7-yl-{2-[4-(2-trifluoromethylpyridin-4-yloxy)-phenyl]-ethyl}-amine] | 80 to 100% | 80 to 100% | 80 to 100% | 80 to 100% | 
17 | Fc1cc(CCNc2ncnc3scnc23)ccc1Oc1cc(C(F)(F)F)ccn1 [Compound 41, {2-[3-fluoro-4-(4-trifluoromethylpyridin-2-yloxy)-phenyl]-ethyl}-thiazolo[5,4-d]pyrimidin-7-ylamine] | 80 to 100% | 80 to 100% | 80 to 100% | 80 to 100% | 
